Values of other authors in patent publication US20250250539A1, “METHOD FOR EVALUATING ACTIVITY OF INHIBITING OR PROMOTING AGGREGATION OF AGGREGATING PROTEINS” (KANEKA CORPORATION, priority 2022, published 2025).

Test system: amyloid β protein
Conditions: known cell-free evaluation system

O=C(/C=C/c1ccc(O)c(O)c1)O[C@H](Cc1ccc(O)c(O)c1)C(=O)O [rosmarinic acid]
activity of inhibiting aggregation: exhibiting activity of inhibiting aggregation
